Reference: patent publication US10363239B2, “Method for inhibiting growth of cancer cells” (Pain Therapeutics, Inc., priority 2013, dated 2019)

Assays:
[1] = tested on: pS2448mTOR, pS473Akt, pY/pT-ERK2 in HTB-22 cells; test: Activated (phosphorylated) mTOR, Akt and ERK2 levels (immunoprecipitation, Western blotting); format: cell-based, human; conditions: 0.1-5 nM; 4 days
Procedure: (§1) Cells were treated with vehicle and 0.1-5 nM C0105 for 4 days. Cells were washed, solubilized and the resultant cell lysate was immunoprecipitated with anti-mTOR, -Akt or -ERK2. The levels of pS^2448mTOR, pS^473Akt, pY/pTERK2 in the respective anti-mTOR, -Akt, and -ERK2 immunoprecipitates were determined by Western blotting (not shown). The density of protein bands was measured by densitometric scanning. […] FIGS. 13C and 13G and FIGS. 13D and 13H show similarly obtained data for immunoprecipitates from HMEC and HPEC cells, respectively. Cell treatments and data handling were as discussed in FIG. 12.
(§2) To study the effect of Compound C0105 on pS^2152FLNA levels, FLNA linkages to key regulators including protein phosphatases as well as activated Akt (pS^473-, pT^308-Akt), mTOR ([…]) and ERK (pY/pT-ERK) levels, the cancer and normal cells were cultured to approximately 90% confluency and treated with vehicle or varying concentrations of Compound C0105. The cells were washed with warm phosphate-buffered saline (PBS), pH 7.2, dissociated, homogenized by sonication and solubilized using 0.5% NP-40 (nonoxynol 40), 0.2% sodium cholate and 0.5% digitonin for 1 hour at 4° C.
(§3) The cell lysates were diluted 5-fold with immunoprecipitation buffer and immunoprecipitated with anti-FLNA, -Akt, -mTOR and -ERK2 as described previously [Talbot et al., J Clin Inv 122(4):1-23 (2012); Wang et al., J Neurosci 32(29):9773-9784 (2012)]. The levels of FLNA linkages, activated phosphorylated Akt (pS^473 and pT^308), phosphorylated mTOR (pS^2448) and phosphorylated ERK2 (pY/pT) were determined in anti-FLNA, -Akt, -mTOR and -ERK2 immunoprecipitates by Western blotting with appropriate antibodies directed against PTEN, PP2A, K-RAS, ras-GAP (FLNA linkages), pS^473Akt, pT^308Akt, pS^2448mTOR and pY/pT ERK2 (activation of Akt, mTOR and ERK2).

[2] = tested on: pS2448mTOR, pS473Akt, pY/pT-ERK2 in HMEC; test: as above; format: cell-based, human; conditions: 0.1-5 nM; 4 days
Procedure: as §1, §2, §3

[3] = tested on: pS2448mTOR, pS473Akt, pY/pT-ERK2 in MiaPaCa2 cells; test: as above; format: cell-based, human; conditions: 0.1-5 nM; 4 days
Procedure: as §1, §2, §3

[4] = tested on: pS2448mTOR, pS473Akt, pY/pT-ERK2 in HPEC; test: as above; format: cell-based, human; conditions: 0.1-5 nM; 4 days
Procedure: as §1, §2, §3

MiaPaCa2 cell implants = test: Xenograft survival study; format: in vivo, Nu/Nu mice; conditions: 100 mg/kg
Procedure: FIGS. 34A and 34B illustrate Kaplan-Meier survival curves (FIG. 34A) and averaged tumor volumes (FIG. 34B) in a xenograft study in which MiaPaCa2 cells were implanted in Nu/Nu mice. […] FIG. 34B illustrates average tumor volumes (mm3) in mice treated with vehicle alone (black diamonds), gemcitabine (open squares), Compound C0105 at 10 mg/kg (black triangles) and Compound C0105 at 100 mg/kg (open diamonds).
Mice were monitored individually and the treatment effect was compared to each mouse's own original tumor on the treatment day 0. The endpoint of the study was a tumor volume of 1500 mm^3 or 45 days, whichever comes first. The animals were euthanized when the endpoint was reached. Responders were followed longer (survival study). The Table below illustrates the drug treatment administered to the mice.
A third xenograft study was designed to measure survival rather than tumor volume at a designated time point.

[5] = tested on: small-cell lung carcinoma cells; test: Cell proliferation by cell-cycling markers Ki67 and PCNA (Western blots); format: cell-based, human; conditions: 0.1-5 nM; 4 days
[6] = tested on: breast cancer HTB-22 cells; test: as above; format: cell-based, human; conditions: 0.1-5 nM; 4 days
Procedure: The effect of contact with Compound C0105 on cell proliferation was determined by the levels of cell-cycling markers: Ki67 and PCNA using Western blots in HTB-22 and control human mammary epithelial cells (HMECs). Cells treated with vehicle and 0.1-5 nM Compound C0105 for 4 days were collected, washed and solubilized. The resultant cell lysates were size-fractionated on SDS-PAGE and Western blotting to determine the levels of Ki67, PCNA and actin (loading control). The protein bands were quantified using densitometric scanning.
The effect of C0105 on cell proliferation was determined by the levels of cell-cycling markers Ki67 and PCNA using Western blots in HTB-22 and control HMECs. Cells contacted with vehicle and 0.1-5 nM Compound C0105 for 4 days were collected, washed and solubilized. […] The protein bands were quantified using densitometric scanning. […]
To study the effect of Compound C0105 on PI3K activity, the cancer and primary normal cells were cultured to approximately 60-70% confluency, serum deprived for 4 hours, briefly washed with PBS and treated with vehicle or 0.1, 0.5, 1 or 5 nM Compound C0105 for 24 hours with in 0.1% FBS-containing culture medium. […] The cell pellets were sonicated in ice-cold immunoprecipitation buffer and protein concentrations measured by the Bradford method. […]

`CN1CCC2(CC1)NCC(=O)N2Cc1ccccc1` [Compound C0105] was tested, and the “mTOR, Akt and ERK activation (phosphorylated mTOR, Akt and ERK)” value (“mTOR, Akt and ERK activation” below) [1] was “has little effect on mTOR, Akt and ERK activation”, the “mTOR, Akt and ERK activation” value [2] was “has little effect on mTOR, Akt and ERK activation” and the “mTOR, Akt and ERK activation” value [3] was “has little effect on mTOR, Akt and ERK activation”. For the same molecule, the “mTOR, Akt and ERK activation” value [4] was “has little effect on mTOR, Akt and ERK activation”, the “Tumors shrunk to undetectable” value (MiaPaCa2 cell implants) was “completely shrunk tumors to being undetectable in three high-dose (100 mg/kg) mice” and the “Tumor shrinkage compared to mice receiving vehicle” value (MiaPaCa2 cell implants; mouse found dead at 30 days) was “more than 90%”. The “Cell proliferation (Ki67 and PCNA levels)” value [5] was “reduces cell proliferation” and the “Cell proliferation (Ki67 and PCNA levels)” value [6] was “reduces cell proliferation”.
